# Reference: patent publication US20230202985A1, “Indoles, Indazoles, and Related Analogs for Inhibiting YAP/TAZ-TEAD” (THE KATHOLIEKE UNIVERSITEIT LEUVEN, priority 2021, published 2023)
# Assays:
# Format in all cases: cell-based
# [1] = test system: NCI-H2052; test: Mesothelioma cell line proliferation assay (ATPlite), NCI-H2052; conditions: Homo sapiens, 144 h; NCI-H2052 cells, 6 days with compound, cell viability by ATPlite
# Method: (§1) Mesothelioma cell lines, NCI-H226 and NCI-H2052 (all sourced from the ATCC cell culture collection) are plated in 96-well plates (Corning® 96 Well White Polystyrene Microplate clear flat bottom, white polystyrene (TC-Treated)), at 1500 cells/well in full medium (RPMI 1640 ATCC modification with L-glutamine, HEPES, Phenol Red, Sodium Pyruvate, High glucose, Low sodium bicarbonate and 10% fetal bovine serum). Cells are incubated overnight at 37° C. in an incubator with 5% CO2. Then compounds, dissolved in DMSO, are added in dose-response. Cells are incubated with compound dilutions for another 6 days at 37° C. in an incubator with 5% CO2. Cell viability is quantitated using the ATPlite kit (Perkin-Elmer) and the luminescence is read-out using an Envision instrument (Perkin-Elmer). The amount of relative light units produced using the ATPlite kit is used to calculated percent of inhibition.
# (§2) The activities of some example compounds are depicted in Table 7. The activity ranges A, B and C refer to EC50 values in the mesothelioma cell line proliferation assay as described as follows: “A”: EC50<1 μM; “B”: 1 μM≤EC50≤10 μM and “C”: EC50>10 μM; NT: not tested.
# [2] = test system: NCI-H226; test: Mesothelioma cell line proliferation assay (ATPlite), NCI-H226; conditions: Homo sapiens, 144 h; NCI-H226 cells, 6 days with compound, cell viability by ATPlite
# Method: as §1, §2
# [3] = test system: YAP/TAZ-TEAD transcription; test: Reporter gene assay for measuring the inhibition of YAP/TAZ-TEAD transcription (TEAD-responsive element luciferase reporter in Hek293T cells); conditions: Homo sapiens, HEK-293T; Hek293T cells transfected with TEAD-responsive luciferase reporter, 24 hours incubation
# Method: Hek293T cells are cultured in DMEM supplemented with 10% fetal bovine serum, Sodium pyruvate, Sodium bicarbonate, L-glutamine. The cells are harvested and transiently transfected with TEAD-responsive element luciferase reporter. Transfected cells are plated in 384-wells plate containing pre-diluted compounds. After 24 hours incubation at 37° C./5% CO2, assay plates were cooled down to RT and levelled to an equal volume per well, prior to the addition of 25 uL luciferase substrate SteadyLite (Perkin Elmer)/well. The plate was shaken for 10 min at 600 rpm, centrifuged for 1 min at 500 rpm and measured with an Envision reader (PerkinElmer). The amount of relative light units produced by the TEAD reporter is used to calculated percent of inhibition.
# The percent of reporter inhibition was calculated in the presence of a positive control inhibitor (100% inhibition) versus a condition with the presence of the vehicle basal activity of the reporter (0% inhibition). The ability of a test compound to inhibit this activity was determined as:
# Percentage inhibition=[1−((RLU determined in the presence of vehicle−RLU determined for sample with test compound present) divided by (RLU determined in the presence of vehicle−RLU determined for sample with positive control inhibitor))]*100
# The activities of example compounds tested are depicted in Table 6. The activity ranges A, B and C refer to IC50 values in the reporter gene assay as follows: “A”: IC50<1 μM; “B”: 1 μM≤IC50≤20 μM and “C”: IC50>20 μM; NT=not tested.
SMILES,EC50 [1],EC50 [2],EC50 [3]
"C=CC(=O)NCc1nn(-c2ccc(C(F)(F)F)cc2)c2ccc(OCC3CCOC3)cc12 (racemic) [compound 46, N-[[5-[[rac-tetrahydrofuran-3-yl]methoxy]-1-[4-(trifluoromethyl)phenyl]indazol-3-yl]methyl]prop-2-enamide]",< 1 µM,< 1 µM,< 1 µM
"C=CC(=O)NCc1nn(-c2ccc(C(F)(F)F)cc2)c2ccc(OC[C@H]3CCOC3)cc12 (single isomer, unassigned) [compound 47]",< 1 µM,< 1 µM,< 1 µM
"C=CC(=O)NCc1nn(-c2ccc(C(F)(F)F)cc2)c2ccc(OC[C@@H]3CCOC3)cc12 (single isomer, unassigned) [compound 48]",< 1 µM,< 1 µM,< 1 µM
"C=CC(=O)NCc1nn(-c2ccc(OC(F)(F)F)cc2)c2ccccc12 [Cpd. No. 4, N-((1-(4-(trifluoromethoxy)phenyl)-1H-indazol-3-yl)methyl)acrylamide]",< 1 µM,< 1 µM,< 1 µM
"C=CC(=O)NCc1nn(-c2ccc(C(F)(F)F)cc2)c2ccc(OCC#N)cc12 [Cpd. No. 43, N-[[5-(cyanomethoxy)-1-[4-(trifluoromethyl)phenyl]indazol-3-yl]methyl]prop-2-enamide]",< 1 µM,< 1 µM,< 1 µM
"C=CC(=O)NCc1nn(-c2ccc(C(F)(F)F)cc2)c2ccccc12 [compound 1, N-((1-(4-(trifluoromethyl)phenyl)-1H-indazol-3-yl)methyl)acrylamide]",< 1 µM,< 1 µM,< 1 µM
"CS(=O)(=O)NCc1nn(-c2ccc(C(F)(F)F)cc2)c2ccccc12 [compound 3, N-((1-(4-(trifluoromethyl)phenyl)-1H-indazol-3-yl)methyl)methanesulfonamide]",> 10 µM,> 10 µM,< 1 µM
"C=CC(=O)NCc1nn(-c2ccc(C(F)(F)F)cc2)c2ncccc12 [compound 19, N-((1-(4-(trifluoromethyl)phenyl)-1H-pyrazolo[3,4-b]pyridin-3-yl)methyl)acrylamide]",< 1 µM,< 1 µM,< 1 µM
"C=CC(=O)Nc1cn(-c2ccc(C(F)(F)F)cc2)c2ccccc12 [compound 20, N-(1-(4-(trifluoromethyl)phenyl)-1H-indol-3-yl)acrylamide]",< 1 µM,1 to 10 µM,< 1 µM
"CC(=O)Nc1cn(-c2ccc(C(F)(F)F)cc2)c2ccccc12 [compound 21, N-(1-(4-(trifluoromethyl)phenyl)-1H-indol-3-yl)acetamide]",1 to 10 µM,< 1 µM,< 1 µM
"C=CC(=O)NCc1cn(-c2ccc(C(F)(F)F)cc2)c2ccccc12 [compound 27, N-((1-(4-(trifluoromethyl)phenyl)-1H-indol-3-yl)methyl)acrylamide]",1 to 10 µM,> 10 µM,< 1 µM
"C=CC(=O)NCc1cc2ccccc2n1-c1ccc(C(F)(F)F)cc1 [compound 29, N-((1-(4-(trifluoromethyl)phenyl)-1H-indol-2-yl)methyl)acrylamide]",< 1 µM,< 1 µM,< 1 µM
"C=CC(=O)NCc1cc2ccccc2n1Cc1ccc(C(F)(F)F)cc1 [compound 31, N-((1-(4-(trifluoromethyl)benzyl)-1H-indol-2-yl)methyl)acrylamide]",1 to 10 µM,< 1 µM,< 1 µM
"C=CC(=O)NCc1nn(-c2ccc(C(F)(F)F)cc2)c2cccnc12 [compound 40, N-((1-(4-(trifluoromethyl)phenyl)-1H-pyrazolo[4,3-b]pyridin-3-yl)methyl)acrylamide]",< 1 µM,< 1 µM,< 1 µM
"C=CC(=O)NCc1nn(-c2ccc(C(F)(F)F)cc2)c2ccc(Oc3ccccc3)cc12 [compound 49, N-[[5-phenoxy-1-[4-(trifluoromethyl)phenyl]indazol-3-yl]methyl]prop-2-enamide]",< 1 µM,< 1 µM,< 1 µM
"C=CC(=O)NCc1nn(-c2ccc(C(F)(F)F)cc2)c2cc(OC3CC3)ccc12 [compound 50, N-[[6-(cyclopropoxy)-1-[4-(trifluoromethyl)phenyl]indazol-3-yl]methyl]prop-2-enamide]",< 1 µM,< 1 µM,< 1 µM
"N#CCS(=O)(=O)NCc1nn(-c2ccc(C(F)(F)F)cc2)c2ccccc12 [compound 57, 1-cyano-N-[[1-[4-(trifluoromethyl)phenyl]indazol-3-yl]methyl]methanesulfonamide]",–,–,1 to 20 µM
"Cn1c(Oc2ccc3c(c2)c(CNS(C)(=O)=O)nn3-c2ccc(C(F)(F)F)cc2)cc(=O)[nH]c1=O [compound 60, N-[[5-(3-methyl-2,6-dioxo-pyrimidin-4-yl)oxy-1-[4-(trifluoromethyl)phenyl]indazol-3-yl]methyl]methanesulfonamide]",–,–,> 20 µM
"CS(=O)(=O)NCc1nn(-c2ccc(C(F)(F)F)cc2)c2cc(OC3CC3)ccc12 [compound 61, N-[[6-(cyclopropoxy)-1-[4-(trifluoromethyl)phenyl]indazol-3-yl]methyl]methanesulfonamide]",–,–,1 to 20 µM
"CCC(=O)NCc1nn(-c2ccc(C(F)(F)F)cc2)c2cc(OC3CC3)ccc12 [compound 62, N-[[6-(cyclopropoxy)-1-[4-(trifluoromethyl)phenyl]indazol-3-yl]methyl]propanamide]",–,–,> 20 µM
"C#CCOc1ccc2c(c1)c(CNC(=O)CC)nn2-c1ccc(C(F)(F)F)cc1 [compound 64, N-[[5-prop-2-ynoxy-1-[4-(trifluoromethyl)phenyl]indazol-3-yl]methyl]propanamide]",–,–,> 20 µM
"C#CCOc1ccc2c(c1)c(CNS(C)(=O)=O)nn2-c1ccc(C(F)(F)F)cc1 [compound 65, N-[[5-prop-2-ynoxy-1-[4-(trifluoromethyl)phenyl]indazol-3-yl]methyl]methanesulfonamide]",–,–,> 20 µM
"CCC(=O)NCc1nn(-c2ccc(C(F)(F)F)cc2)c2ccc(OCC3CC3)cc12 [compound 67, N-[[5-(cyclopropylmethoxy)-1-[4-(trifluoromethyl)phenyl]indazol-3-yl]methyl]propanamide]",–,–,> 20 µM
"CS(=O)(=O)NCc1nn(-c2ccc(C(F)(F)F)cc2)c2ccc(OCC3CC3)cc12 [compound 68, N-[[5-(cyclopropylmethoxy)-1-[4-(trifluoromethyl)phenyl]indazol-3-yl]methyl]methanesulfonamide]",–,–,< 1 µM
"O=C(O)COc1cccc2c1cnn2-c1ccc(C(F)(F)F)cc1 [compound 69, 2-[1-[4-(trifluoromethyl)phenyl]indazol-4-yl]oxyacetic acid]",–,–,> 20 µM
"C=C(CNc1nn(-c2ccc(C(F)(F)F)cc2)c2ccccc12)C(=O)O [compound 70, 2-[[[1-[4-(trifluoromethyl)phenyl]indazol-3-yl]amino]methyl]prop-2-enoic acid]",–,–,< 1 µM
"CC(=O)NCc1nn(-c2ccc(C(F)(F)F)cc2)c2ccc(C(F)(F)F)cc12 [compound 72, N-[[5-(trifluoromethyl)-1-[4-(trifluoromethyl)phenyl]indazol-3-yl]methyl]acetamide]",–,–,1 to 20 µM
"CS(=O)(=O)NCc1nn(-c2ccc(C(F)(F)F)cc2)c2ccc(C(F)(F)F)cc12 [compound 73, N-[[5-(trifluoromethyl)-1-[4-(trifluoromethyl)phenyl]indazol-3-yl]methyl]methanesulfonamide]",–,–,1 to 20 µM
"CC(=O)NCc1nn(-c2ccc(C(F)(F)F)cc2)c2cc(C(F)(F)F)ccc12 [compound 75, N-[[6-(trifluoromethyl)-1-[4-(trifluoromethyl)phenyl]indazol-3-yl]methyl]acetamide]",–,–,> 20 µM
"CS(=O)(=O)NCc1nn(-c2ccc(C(F)(F)F)cc2)c2cc(C(F)(F)F)ccc12 [compound 76, N-[[6-(trifluoromethyl)-1-[4-(trifluoromethyl)phenyl]indazol-3-yl]methyl]methanesulfonamide]",–,–,1 to 20 µM
